Experiments:
Experiment in all cases: relative viability (nuclei count vs DMSO), 5 days (fraction); higher = more cells survive
Shikonin + Foretinib = compound: CC(C)=CC[C@@H](O)C1=CC(=O)c2c(O)ccc(O)c2C1=O [Shikonin] + COc1cc2c(Oc3ccc(NC(=O)C4(C(=O)Nc5ccc(F)cc5)CC4)cc3F)ccnc2cc1OCCCN1CCOCC1 [Foretinib] (partner 0.25 µM)
In short: (§1)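 Lung cancer cell lines in 1536-well plates were dosed by pin tool the day after seeding, either with one drug alone or with a fixed anchor-drug dose plus five library-drug doses (not always all listed) in √10 steps. After 5 days, cells were fixed and their nuclei stained in one step (final 0.05% Triton X-100, 1% formaldehyde, 1 ug/ml Hoechst), then counted on 4× images. Relative viability is the nuclei count in treated wells divided by that in vehicle wells. Values are medians of duplicate plates.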

[1] = compound: CC(C)N(CCCNC(=O)Nc1ccc(C(C)(C)C)cc1)C[C@H]1O[C@@H](n2ccc3c(N)ncnc32)[C@H](O)[C@@H]1O + CC1(C)CCC(c2ccc(Cl)cc2)=C(CN2CCN(c3ccc(C(=O)NS(=O)(=O)c4ccc(N[C@H](CCN5CCOCC5)CSc5ccccc5)c(S(=O)(=O)C(F)(F)F)c4)cc3)CC2)C1 [Navitoclax] (partner 0.5 µM)
In short: as §1

Shikonin + Vorinostat = compound: CC(C)=CC[C@@H](O)C1=CC(=O)c2c(O)ccc(O)c2C1=O [Shikonin] + O=C(CCCCCCC(=O)Nc1ccccc1)NO [Vorinostat] (partner 1 µM)
In short: as §1

Shikonin + Decitabine = compound: CC(C)=CC[C@@H](O)C1=CC(=O)c2c(O)ccc(O)c2C1=O [Shikonin] + Nc1ncn([C@H]2C[C@H](O)[C@@H](CO)O2)c(=O)n1 [Decitabine] (partner 2 µM)
In short: as §1

Cell Line	relative viability (Shikonin + Foretinib; first compound 0.01 µM)	relative viability (Shikonin + Foretinib; first compound 0.1 µM)	relative viability (Shikonin + Foretinib; first compound 0.3162 µM)	relative viability (Shikonin + Foretinib; first compound 1 µM)	relative viability ([1]; first compound 0.08 µM)	relative viability ([1]; first compound 0.253 µM)	relative viability ([1]; first compound 0.8 µM)	relative viability ([1]; first compound 2.53 µM)	relative viability ([1]; first compound 8 µM)	relative viability (Shikonin + Vorinostat; first compound 0.01 µM)	relative viability (Shikonin + Vorinostat; first compound 0.1 µM)	relative viability (Shikonin + Vorinostat; first compound 0.3162 µM)	relative viability (Shikonin + Vorinostat; first compound 1 µM)	relative viability (Shikonin + Decitabine; first compound 0.01 µM)	relative viability (Shikonin + Decitabine; first compound 0.1 µM)	relative viability (Shikonin + Decitabine; first compound 0.3162 µM)	relative viability (Shikonin + Decitabine; first compound 1 µM)
NCI-H460	1.09	0.797	1.12	0.994	1.01	1.16	1.12	1.27	0.9	0.919	0.946	0.959	0.828	0.446	0.685	0.504	0.516
NCI-H520	0.801	0.759	0.8	0.696	1.04	1.15	1.1	1.05	0.929	0.8	0.718	0.717	0.681	0.47	0.598	0.454	0.401
NCI-H596	0.868	0.824	0.777	0.941	0.98	0.877	0.909	1.01	0.992	0.45	0.616	0.612	0.774	1.08	1.03	0.981	1.25
NCI-H647	1.29	1.46	1.51	1.31	0.894	–	1.07	1.06	1.05	0.54	0.624	0.72	0.513	0.364	0.504	0.346	0.328
NCI-H727	0.864	0.837	0.905	0.883	0.416	0.389	0.499	0.534	0.506	1.32	1.44	1.27	1.14	0.893	1.02	0.927	0.883
NCI-H838	1.08	1.16	1.2	0.999	1.12	1.1	1.2	1.15	1.14	0.704	0.753	0.775	0.582	0.476	0.413	0.442	0.468
NCI-H1355	1.03	1.16	1.04	1.04	0.854	0.909	–	0.911	0.935	0.65	0.623	0.627	0.604	0.339	0.4	0.38	0.337
NCI-H1395	0.955	0.949	0.948	0.939	1.17	1.1	–	1.23	1.53	0.675	0.705	0.695	0.938	0.719	0.796	0.692	0.71
NCI-H1437	1.37	1.26	1.26	1.27	1	1.11	1.07	1.14	1.04	0.886	0.841	0.856	0.736	0.607	0.594	0.524	0.536
NCI-H1650	1.18	1.07	0.985	1.32	1.11	1.17	–	1.14	1	0.41	0.499	0.485	0.483	0.379	0.355	0.424	0.389
NCI-H1651	0.883	0.758	0.93	0.714	1.01	1.04	1.09	1.05	0.995	0.553	0.617	0.57	0.636	0.621	0.656	0.66	0.641
NCI-H1666	0.932	1.02	1.01	0.961	0.946	0.912	1.03	0.934	0.953	1.07	0.96	0.966	1.12	0.668	0.779	0.82	0.734
NCI-H1734	0.762	0.681	0.869	0.915	0.784	0.86	0.71	0.856	0.752	0.732	0.818	0.765	0.842	0.475	0.566	0.571	0.474
NCI-H1755	0.932	1.02	0.967	0.956	0.986	0.99	0.923	0.958	0.914	0.637	0.807	0.888	0.665	0.735	0.768	0.761	0.712
NCI-H1793	0.783	0.737	0.792	0.59	0.487	–	0.393	0.505	0.357	0.752	0.974	0.68	0.973	0.513	0.565	0.451	0.456
NCI-H1915	1.13	1.12	1.15	1.2	0.782	0.778	0.781	0.768	0.697	0.511	0.612	0.576	0.479	0.271	0.286	0.268	0.258
NCI-H1944	0.94	0.954	0.989	0.94	0.982	0.983	0.988	1.05	1.02	0.521	0.521	0.673	0.55	0.464	0.446	0.443	0.435
NCI-H1975	1	0.921	0.947	0.973	0.978	1.18	1.17	0.923	0.835	0.687	0.785	0.801	0.64	0.377	0.392	0.36	0.381

Cell Line	relative viability (Shikonin + Foretinib; first compound 0.01 µM)	relative viability (Shikonin + Foretinib; first compound 0.1 µM)	relative viability (Shikonin + Foretinib; first compound 0.3162 µM)	relative viability (Shikonin + Foretinib; first compound 1 µM)	relative viability ([1]; first compound 0.08 µM)	relative viability ([1]; first compound 0.253 µM)	relative viability ([1]; first compound 0.8 µM)	relative viability ([1]; first compound 2.53 µM)	relative viability ([1]; first compound 8 µM)	relative viability (Shikonin + Vorinostat; first compound 0.01 µM)	relative viability (Shikonin + Vorinostat; first compound 0.1 µM)	relative viability (Shikonin + Vorinostat; first compound 0.3162 µM)	relative viability (Shikonin + Vorinostat; first compound 1 µM)	relative viability (Shikonin + Decitabine; first compound 0.01 µM)	relative viability (Shikonin + Decitabine; first compound 0.1 µM)	relative viability (Shikonin + Decitabine; first compound 0.3162 µM)	relative viability (Shikonin + Decitabine; first compound 1 µM)
NCI-H1993	0.782	0.696	0.767	0.715	0.944	1.03	0.872	0.807	0.959	0.72	0.773	1.02	0.806	0.668	0.592	0.632	0.555
NCI-H2009	1.24	1.37	1.31	1.06	1.19	1.17	1.19	1.17	1.13	0.918	0.737	0.789	0.649	0.335	0.399	0.399	0.222
NCI-H2023	0.921	0.863	0.887	0.931	0.989	1.05	1.01	1.05	0.988	0.645	0.772	0.703	0.736	0.201	0.251	0.236	0.225
NCI-H2085	0.851	1.06	0.996	0.753	1.11	1.11	1.18	1.33	1.15	0.78	0.917	0.775	0.824	0.528	0.515	0.57	0.532
NCI-H2087	1.04	1.07	1.19	1.1	1.04	1.11	0.896	1.14	0.989	0.624	0.742	0.696	0.689	0.283	0.263	0.278	0.294
NCI-H2126	1.06	1.2	1.18	1.43	0.887	0.825	0.851	0.848	0.776	0.806	0.757	0.841	0.819	0.593	0.589	0.628	0.559
NCI-H2170	1.03	0.88	1.06	1.02	0.605	0.637	0.594	0.567	0.544	0.856	0.89	0.999	0.816	0.481	0.449	0.496	0.503
NCI-H2347	1.15	1.27	0.835	0.953	0.86	0.684	0.608	0.771	0.71	0.567	0.529	0.6	0.577	0.646	0.623	0.659	0.597
NCI-H2405	1.06	1.08	1.15	1.03	0.957	–	0.991	1	1.05	1.11	1.12	1.03	1.11	0.827	0.889	0.762	0.702
NCI-H3122	0.959	0.997	0.947	1.01	1.03	0.997	1.04	0.985	0.931	1.07	0.986	1.29	0.944	0.485	0.467	0.443	0.458
PC-3 [JPC-3]	1.06	1.16	1.1	1.1	0.784	0.752	0.807	0.797	0.7	0.845	0.792	0.781	1.3	0.765	0.896	0.843	0.82
PC-14	0.914	1	1.15	1.09	1	0.996	0.946	1.03	0.847	0.807	0.833	0.77	0.484	0.216	0.278	0.413	0.161
RERF-LC-KJ	0.904	0.961	0.903	0.908	0.717	1.06	1.03	0.931	0.822	0.709	0.836	0.718	0.757	0.782	0.703	0.636	0.653
SK-LU-1	0.869	0.907	0.863	0.788	0.688	0.762	0.86	1.06	0.557	0.844	0.878	0.853	0.704	0.631	0.688	0.59	0.635
SK-MES-1	1.01	1.2	0.965	0.939	1.12	1.26	1.28	1.18	1.19	1.13	1.33	1.12	1.26	0.323	0.417	0.371	0.426
SW 1573	0.929	0.894	1.13	0.765	1.04	1.06	1.09	1.15	1.09	0.739	0.94	0.536	0.306	0.446	0.686	0.261	0.135
UMC-11	1.02	1.13	1.13	1.07	0.296	0.329	0.319	0.302	0.294	0.322	0.34	0.415	0.396	0.576	0.614	0.665	0.74

— the supplement of paper PMC10307832
